From PubChem BioAssay (NCI)
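1) Cells in 96-well plates. 2) Compound, 48 h, 5 concentrations. 3) Linear interpolation between surrounding doses. 4) Unreached endpoint = highest concentration. TGI is the concentration that stops growth completely.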

Legend:
Test in all cases: growth of human tumour cells (NCI), 48 h
A549 NSCLC = system: A549 NSCLC
HOP-92 NSCLC = system: HOP-92 NSCLC
RXF 393 renal = system: RXF 393 renal
NCI-H23 lung = system: NCI-H23 lung
SNB-19 CNS = system: SNB-19 CNS
OVCAR-5 ovarian = system: OVCAR-5 ovarian
TK-10 renal = system: TK-10 renal
SF-295 CNS = system: SF-295 CNS
IGROV1 ovarian = system: IGROV1 ovarian
DLD-1 colon = system: DLD-1 colon
SK-MEL-5 melanoma = system: SK-MEL-5 melanoma
OVCAR-4 ovarian = system: OVCAR-4 ovarian
HL-60(TB) leukemia = system: HL-60(TB) leukemia
SK-OV-3 ovarian = system: SK-OV-3 ovarian
RPMI-8226 leukemia = system: RPMI-8226 leukemia
SN12C renal = system: SN12C renal
UO-31 renal = system: UO-31 renal
DMS 114 small cell lung = system: DMS 114 small cell lung
KM20L2 colon = system: KM20L2 colon
OVCAR-8 ovarian = system: OVCAR-8 ovarian
RXF-631 renal = system: RXF-631 renal
SW-620 colon = system: SW-620 colon
OVCAR-3 ovarian = system: OVCAR-3 ovarian
UACC-62 melanoma = system: UACC-62 melanoma
SNB-75 CNS = system: SNB-75 CNS
NCI-H460 lung = system: NCI-H460 lung
HCC-2998 colon = system: HCC-2998 colon
U251 CNS = system: U251 CNS
K-562 leukemia = system: K-562 leukemia
SNB-78 CNS = system: SNB-78 CNS
NCI-H226 lung = system: NCI-H226 lung
MOLT-4 leukemia = system: MOLT-4 leukemia
SF-539 CNS = system: SF-539 CNS
786-0 renal = system: 786-0 renal
ACHN renal = system: ACHN renal
XF 498 CNS = system: XF 498 CNS
UACC-257 melanoma = system: UACC-257 melanoma
NCI-H522 lung = system: NCI-H522 lung
A498 renal = system: A498 renal
M19-MEL melanoma = system: M19-MEL melanoma
SK-MEL-2 melanoma = system: SK-MEL-2 melanoma
KM12 colon = system: KM12 colon
HOP-18 NSCLC = system: HOP-18 NSCLC
EKVX NSCLC = system: EKVX NSCLC
LXFL 529 NSCLC = system: LXFL 529 NSCLC
SK-MEL-28 melanoma = system: SK-MEL-28 melanoma
HT29 colon = system: HT29 colon
M14 melanoma = system: M14 melanoma
HCT-15 colon = system: HCT-15 colon
LOX IMVI melanoma = system: LOX IMVI melanoma
COLO 205 colon = system: COLO 205 colon
DMS 273 small cell lung = system: DMS 273 small cell lung
HOP-62 NSCLC = system: HOP-62 NSCLC
MALME-3M melanoma = system: MALME-3M melanoma
CAKI-1 renal = system: CAKI-1 renal
SF-268 CNS = system: SF-268 CNS
CCRF-CEM leukemia = system: CCRF-CEM leukemia
HCT-116 colon = system: HCT-116 colon

C[C@]12CCc3nonc3C1CC[C@@H]1C2CC[C@]2(C)C(=O)CCC12 (stereo not given in full)
TGI (A549 NSCLC): 82.5 µM
TGI (HOP-92 NSCLC): 55.3 µM
TGI (RXF 393 renal): > 100 µM
TGI (NCI-H23 lung): > 100 µM
TGI (SNB-19 CNS): > 100 µM
TGI (OVCAR-5 ovarian): > 100 µM
TGI (TK-10 renal): > 10 µM
TGI (SF-295 CNS): 83.9 µM
TGI (IGROV1 ovarian): > 100 µM
TGI (DLD-1 colon): > 100 µM
TGI (SK-MEL-5 melanoma): 34.2 µM
TGI (OVCAR-4 ovarian): > 100 µM
TGI (HL-60(TB) leukemia): 39.2 µM
TGI (SK-OV-3 ovarian): > 100 µM
TGI (RPMI-8226 leukemia): 46.5 µM
TGI (SN12C renal): > 100 µM
TGI (UO-31 renal): 68.2 µM
TGI (DMS 114 small cell lung): 60 µM
TGI (KM20L2 colon): 82.4 µM
TGI (OVCAR-8 ovarian): > 100 µM
TGI (RXF-631 renal): > 100 µM
TGI (SW-620 colon): > 100 µM
TGI (OVCAR-3 ovarian): 58.7 µM
TGI (UACC-62 melanoma): 68.3 µM
TGI (SNB-75 CNS): 94.5 µM
TGI (NCI-H460 lung): > 100 µM
TGI (HCC-2998 colon): 71.2 µM
TGI (U251 CNS): > 100 µM
TGI (K-562 leukemia): > 100 µM
TGI (SNB-78 CNS): > 100 µM
TGI (NCI-H226 lung): > 100 µM
TGI (MOLT-4 leukemia): 61.6 µM
TGI (SF-539 CNS): 49.8 µM
TGI (786-0 renal): > 100 µM
TGI (ACHN renal): > 100 µM
TGI (XF 498 CNS): 45 µM
TGI (UACC-257 melanoma): > 10 µM
TGI (NCI-H522 lung): 72.2 µM
TGI (A498 renal): 78.8 µM
TGI (M19-MEL melanoma): 57.2 µM
TGI (SK-MEL-2 melanoma): 46.8 µM
TGI (KM12 colon): 37.4 µM
TGI (HOP-18 NSCLC): > 100 µM
TGI (EKVX NSCLC): 69.4 µM
TGI (LXFL 529 NSCLC): > 100 µM
TGI (SK-MEL-28 melanoma): > 10 µM
TGI (HT29 colon): 37.9 µM
TGI (M14 melanoma): > 100 µM
TGI (HCT-15 colon): > 100 µM
TGI (LOX IMVI melanoma): 47.6 µM
TGI (COLO 205 colon): 56.3 µM
TGI (DMS 273 small cell lung): 51.1 µM
TGI (HOP-62 NSCLC): > 100 µM
TGI (MALME-3M melanoma): 65.7 µM
TGI (CAKI-1 renal): 49.2 µM
TGI (SF-268 CNS): > 100 µM
TGI (CCRF-CEM leukemia): 57.8 µM

CCN(C1=CC(=O)NC2CCCCN12)c1ccccc1 (stereo not given)
TGI (A549 NSCLC): > 100 µM
TGI (RXF 393 renal): > 100 µM
TGI (NCI-H23 lung): > 100 µM
TGI (SNB-19 CNS): > 100 µM
TGI (OVCAR-5 ovarian): > 100 µM
TGI (TK-10 renal): > 100 µM
TGI (SF-295 CNS): > 100 µM
TGI (HCT-116 colon): > 100 µM
TGI (IGROV1 ovarian): > 100 µM
TGI (DLD-1 colon): > 100 µM
TGI (SK-MEL-5 melanoma): > 100 µM
TGI (OVCAR-4 ovarian): > 100 µM
TGI (SK-OV-3 ovarian): > 100 µM
TGI (RPMI-8226 leukemia): > 100 µM
TGI (SN12C renal): > 100 µM
TGI (DMS 114 small cell lung): > 100 µM
TGI (KM20L2 colon): > 100 µM
TGI (OVCAR-8 ovarian): > 100 µM
TGI (RXF-631 renal): > 100 µM
TGI (SW-620 colon): > 100 µM
TGI (OVCAR-3 ovarian): > 100 µM
TGI (UACC-62 melanoma): > 100 µM
TGI (SNB-75 CNS): > 100 µM
TGI (NCI-H460 lung): > 100 µM
TGI (HCC-2998 colon): > 100 µM
TGI (U251 CNS): > 100 µM
TGI (K-562 leukemia): > 100 µM
TGI (SNB-78 CNS): > 100 µM
TGI (MOLT-4 leukemia): > 100 µM
TGI (SF-539 CNS): > 100 µM
TGI (786-0 renal): > 100 µM
TGI (ACHN renal): > 100 µM
TGI (XF 498 CNS): > 100 µM
TGI (UACC-257 melanoma): > 100 µM
TGI (A498 renal): > 100 µM
TGI (M19-MEL melanoma): > 100 µM
TGI (SK-MEL-2 melanoma): > 100 µM
TGI (KM12 colon): > 100 µM
TGI (HOP-18 NSCLC): > 100 µM
TGI (EKVX NSCLC): > 100 µM
TGI (LXFL 529 NSCLC): > 100 µM
TGI (SK-MEL-28 melanoma): > 100 µM
TGI (HT29 colon): > 100 µM
TGI (M14 melanoma): > 100 µM
TGI (HCT-15 colon): > 100 µM
TGI (LOX IMVI melanoma): > 100 µM
TGI (COLO 205 colon): > 100 µM
TGI (DMS 273 small cell lung): > 100 µM
TGI (HOP-62 NSCLC): > 100 µM
TGI (MALME-3M melanoma): > 100 µM
TGI (CAKI-1 renal): > 100 µM
TGI (SF-268 CNS): > 100 µM
TGI (CCRF-CEM leukemia): > 100 µM
